Laboratory results reported in DBAASP.
Values after ≈ are worked out from the molar mass of the structure shown. Values joined by “and” are separate entries in the source; they are usually repeats but may differ in a detail not shown here. Equal values may be shown once.

Key:
Experiment in all cases: ≥ marks a high value that may be exact or a test limit, other limits are often not marked, values filed in µg/mL are converted to µM
[1] = tested on: Escherichia coli KCTC 2593
[2] = tested on: Pseudomonas aeruginosa CCARM 2163
[3] = tested on: Staphylococcus aureus CCARM 3126
[4] = tested on: Bacillus subtilis KCTC 1022
[5] = tested on: Staphylococcus aureus CCARM 3089
[6] = tested on: Pseudomonas aeruginosa CCARM 2003
[7] = tested on: Pseudomonas aeruginosa KCTC 2004
[8] = tested on: Salmonella typhimurium CCARM 8003
[9] = tested on: Staphylococcus aureus KCTC 1621
[10] = tested on: Escherichia coli CCARM 1238
[11] = tested on: Pseudomonas aeruginosa CCARM 2002
[12] = tested on: Escherichia coli KCTC 2571
[13] = tested on: Staphylococcus aureus KCTC 3881
[14] = tested on: Bacillus subtilis KCTC 3068
[15] = tested on: Salmonella typhimurium CCARM 8009
[16] = tested on: Escherichia coli CCARM 1229
[17] = tested on: Pseudomonas aeruginosa KCTC 2513
[18] = tested on: Staphylococcus aureus CCARM 3114
[19] = tested on: Pseudomonas aeruginosa CCARM 2095
[20] = tested on: Acinetobacter baumannii CCARM 12035
[21] = tested on: Acinetobacter baumannii CCARM 12037
[22] = tested on: Salmonella typhimurium KCTC 1926
[23] = tested on: Salmonella typhimurium CCARM 8007
[24] = tested on: Acinetobacter baumannii CCARM 12036
[25] = tested on: Staphylococcus epidermidis KCTC 1917
[26] = tested on: Acinetobacter baumannii CCARM 12005
[27] = tested on: Staphylococcus aureus CCARM 3108
[28] = tested on: Bacillus subtilis KCTC 1021
[29] = tested on: Staphylococcus aureus CCARM 3090
[30] = tested on: Escherichia coli KCTC 1682
[31] = tested on: Pseudomonas aeruginosa KCTC 1637
[32] = tested on: Staphylococcus aureus KCTC 1916
[33] = tested on: Klebsiella aerogenes ATCC 13048
[34] = tested on: Staphylococcus epidermidis ATCC 12228
Bacillus subtilis PS832 = tested on: Bacillus subtilis PS832
Escherichia coli DL7 = tested on: Escherichia coli DL7
[35] = tested on: Staphylococcus aureus ATCC 29213
[36] = tested on: Staphylococcus aureus ATCC 33591
[37] = tested on: Klebsiella pneumoniae ATCC 700603
[38] = tested on: Staphylococcus aureus ATCC 700699
[39] = tested on: Escherichia coli ATCC 25922
[40] = tested on: Pseudomonas aeruginosa ATCC 27853
[41] = tested on: Enterococcus casseliflavus
Staphylococcus aureus = tested on: Staphylococcus aureus
[42] = tested on: Bacillus subtilis KCTC 3038
[43] = tested on: Enterococcus faecalis ATCC 29212
Enterococcus gallinarum = tested on: Enterococcus gallinarum
Enterococcus faecium = tested on: Enterococcus faecium
[44] = tested on: Salmonella typhimurium KCTC 2370
[45] = tested on: Saccharomyces cerevisiae ATCC 44774

An MIC [1] of 2 µM (≈ 5.11 µg/mL), an MIC [2] of 4 µM (≈ 10.2 µg/mL) and an MIC [3] of 16 µM (≈ 40.8 µg/mL) were found for `CC[C@H](C)[C@H](NC(=O)CNC(=O)[C@H](CCCN=C(N)N)NC(=O)[C@H](CCCCN)NC(=O)[C@@H](NC(=O)[C@H](Cc1cnc[nH]1)NC(=O)[C@H](Cc1cnc[nH]1)NC(=O)[C@H](Cc1ccccc1)NC(=O)[C@@H](N)Cc1ccccc1)[C@@H](C)CC)C(=O)N[C@H](C(=O)N[C@@H](Cc1cnc[nH]1)C(=O)N[C@H](C(=O)NCC(=O)N[C@@H](CCCCN)C(=O)N[C@H](C(=O)N[C@H](C(=O)N[C@@H](Cc1cnc[nH]1)C(=O)N[C@@H](CCCN=C(N)N)C(=O)N[C@@H](CC(C)C)C(=O)N[C@H](C(=O)N[C@H](C(=O)NCC(=O)O)[C@@H](C)O)C(C)C)[C@@H](C)CC)[C@@H](C)O)C(C)C)C(C)C` [FFHHIKRGIVHVGKTIHRLVTG] in this work. For the same compound, the MIC [4] was 1 µM (≈ 2.55 µg/mL), the MIC [5] was 16 µM (≈ 40.8 µg/mL) and the MIC [6] was 4 µM (≈ 10.2 µg/mL). The MIC [7] was 8 µM (≈ 20.4 µg/mL), the MIC [8] was 16 µM (≈ 40.8 µg/mL) and the MIC [9] was 4 µM (≈ 10.2 µg/mL). It also gave an MIC [10] of 16 µM (≈ 40.8 µg/mL), an MIC [11] of 4 µM (≈ 10.2 µg/mL) and an MIC [12] of 4 µM (≈ 10.2 µg/mL). For the same compound, the MIC [13] was 4 µM (≈ 10.2 µg/mL), the MIC [14] was 4 µM (≈ 10.2 µg/mL) and the MIC [15] was 16 µM (≈ 40.8 µg/mL). The MIC [16] was 16 µM (≈ 40.8 µg/mL), the MIC [17] was 8 µM (≈ 20.4 µg/mL) and the MIC [18] was 16 µM (≈ 40.8 µg/mL). The MIC [19] was 4 µM (≈ 10.2 µg/mL), the MIC [20] was 4 µM (≈ 10.2 µg/mL) and the MIC [21] was 4 µM (≈ 10.2 µg/mL). It also gave an MIC [22] of 8 µM (≈ 20.4 µg/mL), an MIC [23] of 16 µM (≈ 40.8 µg/mL) and an MIC [24] of 4 µM (≈ 10.2 µg/mL). For the same compound, the MIC [25] was 2 µM (≈ 5.11 µg/mL), the MIC [26] was 4 µM (≈ 10.2 µg/mL) and the MIC [27] was 16 µM (≈ 40.8 µg/mL). For the same compound, the MIC [28] was 4 µM (≈ 10.2 µg/mL), the MIC [29] was 16 µM (≈ 40.8 µg/mL) and the MIC [30] was 4 µM (≈ 10.2 µg/mL). For the same compound, the MIC [31] was 8 µM (≈ 20.4 µg/mL) and the MIC [32] was 4 µM (≈ 10.2 µg/mL).
For `CC(C)C[C@H](NC(=O)[C@H](CCCCN)NC(=O)[C@H](C)NC(=O)[C@H](CC(C)C)NC(=O)[C@H](CCCCN)NC(=O)[C@H](CCCCN)NC(=O)[C@H](C)NC(=O)[C@H](CC(C)C)NC(=O)[C@H](CCCCN)NC(=O)[C@H](C)NC(=O)[C@H](CC(C)C)NC(=O)[C@H](CCCCN)NC(=O)[C@H](Cc1cnc[nH]1)NC(=O)CNC(=O)CN)C(=O)N[C@@H](C)C(=O)N[C@@H](CCCCN)C(N)=O` [GGHKLAKLAKKLAKLAK], the MIC [33] was ≥ 32 µM, the MIC [34] was 1 µM (≈ 1.77 µg/mL) and the MIC (Bacillus subtilis PS832) was 0.125 µM and 0.06 µM. The MIC (Escherichia coli DL7) was 0.125 µM and 0.06 µM.
With `CC[C@H](C)[C@H](NC(=O)[C@H](CC(=O)O)NC(=O)[C@H](CCCCN)NC(=O)[C@H](C)NC(=O)[C@H](C)NC(=O)CNC(=O)[C@H](CCCCN)NC(=O)[C@H](CC(C)C)NC(=O)[C@@H](NC(=O)[C@H](CC(=O)O)NC(=O)[C@@H](NC(=O)[C@@H](NC(=O)CN)C(C)C)C(C)C)[C@@H](C)CC)C(=O)N[C@@H](C)C(=O)NCC(=O)N[C@@H](Cc1cnc[nH]1)C(=O)N[C@@H](CC(C)C)C(=O)N[C@@H](C)C(=O)N[C@@H](CO)C(=O)N[C@@H](CCCCN)C(=O)N[C@H](C(=O)N[C@@H](CCSC)C(=O)N[C@@H](CC(N)=O)C(=O)N[C@@H](C)C(=O)N[C@@H](CC(C)C)C(N)=O)C(C)C` [GVVDILKGAAKDIAGHLASKVMNAL] the MIC [35] was > 100 µM, the MIC [36] was ≥ 100 µM and the MIC [37] was > 100 µM. For the same compound, the MIC [38] was ≥ 100 µM, the MIC [39] was 100 µM (≈ 249 µg/mL) and the MIC [40] was > 100 µM.
An MIC [41] of 1.06 µM (≈ 2 µg/mL), an MIC (Staphylococcus aureus) of 1.5 µM (≈ 2.83 µg/mL) and an MIC [42] of 1.06 µM (≈ 2 µg/mL) were found for `CC[C@H](C)[C@H](NC(=O)[C@H](CCCCN)NC(=O)[C@H](CCC(N)=O)NC(=O)[C@H](CCCCN)NC(=O)[C@@H](NC(=O)[C@@H](NC(=O)[C@H](CCC(N)=O)NC(=O)[C@@H](NC(=O)[C@@H](NC(=O)[C@@H]1CCCN1C(=O)[C@H](CCCN=C(N)N)NC(=O)[C@@H](NC(=O)[C@@H](NC(=O)[C@@H](N)CCCN=C(N)N)[C@@H](C)CC)[C@@H](C)CC)[C@@H](C)CC)[C@@H](C)CC)[C@@H](C)CC)[C@@H](C)CC)C(=O)N[C@@H](CCCN=C(N)N)C(=O)O` [RIIRPIIQIIKQKIR] in this work. For the same compound, the MIC [43] was 1.06 µM (≈ 2 µg/mL), the MIC (Enterococcus gallinarum) was 1.06 µM (≈ 2 µg/mL) and the MIC (Enterococcus faecium) was 1.06 µM (≈ 2 µg/mL). The MIC [44] was 2.12 µM (≈ 4 µg/mL) and the MIC [45] was 2.12 µM (≈ 4 µg/mL).
